Measured values reported in US20150344540A1, “NOVEL GLP-1 RECEPTOR AGONISTS WITH CHOLESTEROL EFFLUX ACTIVITY” (NOVO NORDISK A/S, priority 2012, published 2015).
Like-named read-outs stand apart in the source and are kept apart here. Where a SMILES comes first, the peptide text is derived from it. Where no end group is shown, it is not given here. [ ]: non-standard residue; d: D form. Aib = CC(C)(N)C(=O)O

Assays:
[1] = tested on: Mouse monocyte/macrophage cell line, RAW 264.7; experiment: Cholesterol efflux assay (3H-cholesterol, macrophage cell line); type: cell-based; details: RAW 264.7, 4 hrs incubation, 0.1% human serum albumin; for 4 h Cholesterol Efflux Emax: ABCA1-mediated efflux
[2] = Pharmacokinetics in mini-pigs after i.v. administration; details: female, Göttingen, minipig, iv, 5 nmol/kg
Source text: The aim of the study is to assess the pharmacokinetic properties of the compounds of the invention, in mini-pigs.
Göttingen mini-pigs female, 15-20 kg, purchased from Ellegaard Mini-pigs, Denmark, were housed in the Animal Unit, Novo Nordisk A/S and were kept and handled according to normal procedure in the Animal Unit. After minimum 2 weeks of acclimatization two permanent central venous catheters were implemented in vena cava caudalis in each animal. After surgery the animals were in their normal individual pens during the pharmacokinetic experiments.
Intravenous injections were given through the central short catheter, which was flushed with min 10 ml of sterile saline post administration. The test substance was dosed at 5 nmol/kg, N=3, in a volume of 0.05 ml/kg.
On day 1 the catheters are coupled to extension tubes, which will be removed at the end of day 1.
Samples were kept on wet ice until centrifugation (10 min, 4° C., 1942 g). Afterwards, plasma (min. 100 μl) was transferred immediately to Micronic tubes and kept at −20° C. until analysis. The plasma samples were analysed by an immunoaasay described below.
The plasma concentrations of the peptides with intact N-terminus were determined using a Luminescence Oxygen Chanelling Immuno-assay (LOCI). The donor beads were coated with streptavidin, while acceptor beads were conjugated with a monoclonal antibody recognizing a mid-/C-terminal epitope of the peptide. The other monoclonal antibody, specific for the N-terminus, was biotinylated. The three reactants were combined with the analyte and formed a two-sited immuno-complex. Illumination of the complex released singlet oxygen atoms from the donor beads, which were channeled into the acceptor beads and triggered chemi-luminescence which was measured in an Envision plate reader. The amount of light was proportional to the concentration of the compound.
Plasma concentration-time profiles was analysed by a non-compartmental pharmacokinetics analysis using Phoenix (Pharsight Inc., Mountain View, Calif., USA). Calculations were performed using individual concentration-time values from each animal.

[3] = molecular target: human GLP-1 receptor (Homo sapiens, UniProt P43220); experiment: Functional GLP-1 receptor assay, in vitro potency (CRE luciferase; whole cells); type: cell-based; details: BHK cells expressing human GLP-1 receptor
human GLP-1 receptor, sequence (P43220 24-463): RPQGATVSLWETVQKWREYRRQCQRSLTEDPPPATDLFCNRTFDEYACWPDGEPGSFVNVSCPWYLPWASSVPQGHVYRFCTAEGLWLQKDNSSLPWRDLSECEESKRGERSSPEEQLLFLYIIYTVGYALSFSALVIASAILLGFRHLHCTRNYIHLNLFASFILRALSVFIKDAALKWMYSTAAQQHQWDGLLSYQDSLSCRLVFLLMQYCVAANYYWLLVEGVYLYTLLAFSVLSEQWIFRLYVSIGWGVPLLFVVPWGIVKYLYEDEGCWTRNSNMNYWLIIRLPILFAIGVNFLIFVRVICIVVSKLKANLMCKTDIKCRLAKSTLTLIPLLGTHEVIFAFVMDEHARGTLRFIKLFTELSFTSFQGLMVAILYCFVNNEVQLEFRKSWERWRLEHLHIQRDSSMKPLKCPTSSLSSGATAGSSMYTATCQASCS

[4] = plasma, T1/2 Mean Value, Göttingen mini-pigs, N=3

Compound	4 h Cholesterol Efflux Emax [1] [%]	C0 ([2]; plasma) [nM]	Vd ([2]; plasma) [L/kg]	clearance ([2]; plasma) [mL/h/kg]	half-life ([2]; plasma, T1/2, mini-pigs) [h]	half-life [2, 4] [h]	EC50 ([1]; read-out: 4 h Cholesterol Efflux EC50, ABCA1-mediated efflux (CPT-cAMP induced minus non-induced)) [nM]	C0 ([2]; in vivo) [nM]	Vd ([2]; in vivo) [L/kg]	clearance ([2]; in vivo) [mL/h/kg]	half-life ([2]; in vivo) [h]	EC50 ([3]; 0% HSA, read-out: GLP1R CRE luc 0% HSA EC50 Mean Value) [nM]	EC50 ([3]; GLP1R CRE luc 1% HSA EC50 Mean Value, 1% HSA) [nM]
CC[C@H](C)[C@H](NC(=O)[C@H](Cc1ccccc1)NC(=O)[C@H](CCC(=O)O)NC(=O)[C@H](CCCCN)NC(=O)[C@@H](NC(=O)[C@H](C)NC(=O)[C@H](CCC(=O)O)NC(=O)CNC(=O)[C@H](CCC(=O)O)NC(=O)[C@H](CC(C)C)NC(=O)[C@H](Cc1ccc(O)cc1)NC(=O)[C@H](CO)NC(=O)[C@H](CO)NC(=O)[C@@H](NC(=O)[C@H](CC(=O)O)NC(=O)[C@H](CO)NC(=O)[C@@H](NC(=O)[C@H](Cc1ccccc1)NC(=O)[C@@H](NC(=O)CNC(=O)[C@H](CCC(=O)O)NC(=O)C(C)(C)NC(=O)[C@@H](N)Cc1c[nH]cn1)[C@@H](C)O)[C@@H](C)O)C(C)C)C(C)C)C(=O)N[C@@H](C)C(=O)N[C@@H](Cc1c[nH]c2ccccc12)C(=O)N[C@@H](CC(C)C)C(=O)N[C@H](C(=O)N[C@@H](CCC(=O)O)C(=O)N[C@@H](CCCCN)C(=O)NC(C)(C)C(=O)N[C@@H](CCCCN)C(=O)N[C@@H](CCC(=O)O)C(=O)N[C@@H](Cc1c[nH]cn1)C(=O)N[C@@H](CC(C)C)C(N)=O)C(C)C [Compound 4, [Aib8,Glu23,Val25,Glu34,Lys35,Aib36,Lys37]-GLP-1-(7-37)-peptidyl-Glu-His-Leu amide] (H-H[Aib]EGTFTSDVSSYLEGEAVKEFIAWLVEK[Aib]KEHL-NH2)	100	72.1	0.1	3.31	20.6	20.6							
CC[C@H](C)[C@H](NC(=O)[C@H](Cc1ccccc1)NC(=O)[C@H](CCC(=O)O)NC(=O)[C@H](CCCCN)NC(=O)[C@@H](NC(=O)[C@H](C)NC(=O)[C@H](CCC(=O)O)NC(=O)CNC(=O)[C@H](CCC(=O)O)NC(=O)[C@H](CC(C)C)NC(=O)[C@H](Cc1ccc(O)cc1)NC(=O)[C@H](CO)NC(=O)[C@H](CO)NC(=O)[C@@H](NC(=O)[C@H](CC(=O)O)NC(=O)[C@H](CO)NC(=O)[C@@H](NC(=O)[C@H](Cc1ccccc1)NC(=O)[C@@H](NC(=O)CNC(=O)[C@H](CCC(=O)O)NC(=O)C(C)(C)NC(=O)[C@@H](N)Cc1c[nH]cn1)[C@@H](C)O)[C@@H](C)O)C(C)C)C(C)C)C(=O)N[C@@H](C)C(=O)N[C@@H](Cc1c[nH]c2ccccc12)C(=O)N[C@@H](CC(C)C)C(=O)N[C@H](C(=O)N[C@@H](CCC(=O)O)C(=O)N[C@@H](CCCCN)C(=O)N[C@H](C(=O)N[C@@H](CCCCN)C(=O)N[C@@H](CCC(=O)O)C(=O)N[C@@H](Cc1ccccc1)C(=O)N[C@@H](CC(C)C)C(N)=O)C(C)C)C(C)C [Compound 6, [Aib8,Glu23,Val25,Glu34,Lys35,Val36,Lys37]-GLP-1-(7-37)-peptidyl-Glu-Phe-Leu amide] (H-H[Aib]EGTFTSDVSSYLEGEAVKEFIAWLVEKVKEFL-NH2)	92	89.5	0.0904	1.64	38.7	38.7							
CC[C@H](C)[C@H](NC(=O)[C@H](Cc1ccccc1)NC(=O)[C@H](CCC(=O)O)NC(=O)[C@H](CCCCN)NC(=O)[C@@H](NC(=O)[C@H](C)NC(=O)[C@H](CCC(N)=O)NC(=O)CNC(=O)[C@H](CCC(=O)O)NC(=O)[C@H](CC(C)C)NC(=O)[C@H](Cc1ccc(O)cc1)NC(=O)[C@H](CO)NC(=O)[C@H](CO)NC(=O)[C@@H](NC(=O)[C@H](CC(=O)O)NC(=O)[C@H](CO)NC(=O)[C@@H](NC(=O)[C@H](Cc1ccccc1)NC(=O)[C@@H](NC(=O)CNC(=O)[C@H](CCC(=O)O)NC(=O)C(C)(C)NC(=O)[C@@H](N)Cc1c[nH]cn1)[C@@H](C)O)[C@@H](C)O)C(C)C)C(C)C)C(=O)N[C@@H](C)C(=O)N[C@@H](Cc1c[nH]c2ccccc12)C(=O)N[C@@H](CC(C)C)C(=O)N[C@H](C(=O)N[C@@H](CCC(=O)O)C(=O)N[C@@H](CCCCN)C(=O)NC(C)(C)C(=O)N[C@@H](CCCCN)C(=O)N[C@@H](CCC(=O)O)C(=O)N[C@@H](Cc1ccccc1)C(=O)N[C@@H](CC(C)C)C(N)=O)C(C)C [Compound 7] (H-H[Aib]EGTFTSDVSSYLEGQAVKEFIAWLVEK[Aib]KEFL-NH2)	90	51.2	0.146	3.71	27.3	27.3							
CC[C@H](C)[C@H](NC(=O)[C@H](Cc1ccccc1)NC(=O)[C@H](CCC(=O)O)NC(=O)[C@H](CCCCN)NC(=O)[C@@H](NC(=O)[C@H](C)NC(=O)[C@H](CCC(=O)O)NC(=O)CNC(=O)[C@H](CCC(=O)O)NC(=O)[C@H](CC(C)C)NC(=O)[C@H](Cc1ccc(O)cc1)NC(=O)[C@H](CO)NC(=O)[C@H](CO)NC(=O)[C@@H](NC(=O)[C@H](CC(=O)O)NC(=O)[C@H](CO)NC(=O)[C@@H](NC(=O)[C@H](Cc1ccccc1)NC(=O)[C@@H](NC(=O)CNC(=O)[C@H](CCC(=O)O)NC(=O)C(C)(C)NC(=O)[C@@H](N)Cc1c[nH]cn1)[C@@H](C)O)[C@@H](C)O)C(C)C)C(C)C)C(=O)N[C@@H](C)C(=O)N[C@@H](Cc1c[nH]c2ccccc12)C(=O)N[C@@H](CC(C)C)C(=O)N[C@H](C(=O)N[C@@H](CCC(=O)O)C(=O)N[C@@H](CCCCN)C(=O)NC(C)(C)C(=O)N[C@@H](CCCCN)C(=O)N[C@@H](CCC(=O)O)C(=O)N[C@@H](Cc1ccccc1)C(=O)N[C@@H](CC(C)C)C(=O)O)C(C)C [Compound 16, [Aib8,Glu23,Val25,Glu34,Lys35,Aib36,Lys37]-GLP-1-(7-37)-peptidyl-Glu-Phe-Leu]	105						680	123	0.0889	1.44	42.8		
CC[C@H](C)[C@H](NC(=O)[C@H](Cc1ccccc1)NC(=O)[C@H](CCC(=O)O)NC(=O)[C@H](CCCCN)NC(=O)[C@@H](NC(=O)[C@H](CCCCN)NC(=O)[C@H](CCC(=O)O)NC(=O)CNC(=O)[C@H](CCC(=O)O)NC(=O)[C@H](CC(C)C)NC(=O)[C@H](Cc1ccc(O)cc1)NC(=O)[C@H](CO)NC(=O)[C@H](CO)NC(=O)[C@@H](NC(=O)[C@H](CC(=O)O)NC(=O)[C@H](CO)NC(=O)[C@@H](NC(=O)[C@H](Cc1ccccc1)NC(=O)[C@@H](NC(=O)CNC(=O)[C@H](CCC(=O)O)NC(=O)C(C)(C)NC(=O)[C@@H](N)Cc1c[nH]cn1)[C@@H](C)O)[C@@H](C)O)C(C)C)C(C)C)C(=O)N[C@@H](CCC(=O)O)C(=O)N[C@@H](Cc1c[nH]c2ccccc12)C(=O)N[C@@H](CC(C)C)C(=O)N[C@H](C(=O)N[C@@H](CCC(=O)O)C(=O)N[C@@H](CCCCN)C(=O)NC(C)(C)C(=O)N[C@@H](CCCCN)C(=O)N[C@@H](CCC(=O)O)C(=O)N[C@@H](Cc1ccccc1)C(=O)N[C@@H](CC(C)C)C(N)=O)C(C)C [Compound 49, [Aib8,Glu23,Lys24,Val25,Glu30,Glu34,Lys35,Aib36,Lys37]-GLP-1-(7-37)-peptidyl-Glu-Phe-Leu amide] (H-H[Aib]EGTFTSDVSSYLEGEKVKEFIEWLVEK[Aib]KEFL-NH2)	123	131	0.0878	2.68		24							
CC[C@H](C)[C@H](NC(=O)[C@H](Cc1ccccc1)NC(=O)[C@H](CCC(=O)O)NC(=O)[C@H](CCCCN)NC(=O)[C@@H](NC(=O)[C@H](C)NC(=O)[C@H](CCC(=O)O)NC(=O)CNC(=O)[C@H](CCC(=O)O)NC(=O)[C@H](CC(C)C)NC(=O)[C@H](Cc1ccc(O)cc1)NC(=O)[C@H](CO)NC(=O)[C@H](CO)NC(=O)[C@@H](NC(=O)[C@H](CC(=O)O)NC(=O)[C@H](CO)NC(=O)[C@@H](NC(=O)[C@H](Cc1ccccc1)NC(=O)[C@@H](NC(=O)CNC(=O)[C@H](CCC(=O)O)NC(=O)C(C)(C)NC(=O)[C@@H](N)Cc1c[nH]cn1)[C@@H](C)O)[C@@H](C)O)C(C)C)C(C)C)C(=O)N[C@@H](C)C(=O)N[C@@H](Cc1c[nH]c2ccccc12)C(=O)N[C@@H](CC(C)C)C(=O)N[C@H](C(=O)N[C@@H](CCC(=O)O)C(=O)N[C@@H](CCCCN)C(=O)NC(C)(C)C(=O)N[C@@H](CCCCN)C(=O)N[C@@H](CCC(=O)O)C(=O)N[C@@H](Cc1ccccc1)C(=O)N[C@@H](CC(C)C)C(=O)N[C@@H](CCC(=O)O)C(=O)N[C@@H](CCCCN)C(=O)N[C@H](C(N)=O)C(C)C)C(C)C [Compound 54, [Aib8,Glu23,Val25,Glu34,Lys35,Aib36,Lys37]-GLP-1-(7-37)-peptidyl-Glu-Phe-Leu-Glu-Lys-Val amide]	121	136	0.0802	1.31		40.7							
HAEGTFTSDVSSYLEGQAAKEFIAWLVEKVKEHL-NH2 [Compound 107, [Glu34,Lys35,Val36,Lys37]-GLP-1-(7-37)-peptidyl-Glu-His-Leu amide]		59.2	0.0615	8.04		5.4						0.04	0.01
